In article PMC9147789, “Development and Validation of a Novel LC-MS/MS Method for the Simultaneous Determination of Abemaciclib, Palbociclib, Ribociclib, Anastrozole, Letrozole, and Fulvestrant in Plasma Samples: A Prerequisite for Personalized Breast Cancer Treatment” (Pharmaceuticals, 2022):

Tests used:
[1] = Stability of the analytes in plasma (bench top, autosampler, freeze-thaw, long-term); assay type: physicochemical, human; conditions: for Stability Bias (%) 1 FT Cycle (30 min, −18–25 °C) / Stability Bias (%) 2 FT Cycles (30 min, −18–25 °C) / Stability Bias (%) 3 FT Cycles (30 min, −18–25 °C) / Stability Bias (%) Long-Term (2 Weeks, −18 °C): plasma; for Stability Bias (%) 1 FT Cycle (30 min, −18–25 °C) / Stability Bias (%) 2 FT Cycles (30 min, −18–25 °C) / Stability Bias (%) 3 FT Cycles (30 min, −18–25 °C) / Stability Bias (%) Long-Term (2 Weeks, −18 °C) / Stability Bias (%) Autosampler (10 h, 10 °C): N = 3; for Stability Bias (%) Autosampler (10 h, 10 °C): processed plasma sample; for Stability Bias (%) Bench Top (2 h, 25 °C): unprocessed plasma, N = 3, vs fresh QC
Method: Stability of the stock and working solutions was determined in the preliminary studies. […] Patient plasma samples were stored long-term at −80 °C. Since adequate stability of plasma samples was proven at −18 °C, it was deemed acceptable at lower temperatures as well. Lower- and higher-concentration QC samples were prepared in triplicate for each condition and time point and were analyzed against QC samples freshly prepared in triplicate.

[2] = plasma; cited from earlier work
[3] = LC-MS/MS quantitation of drugs in single-point patient plasma samples (therapeutic drug monitoring); assay type: in vivo, human
Method: Samples from ten women (ages 35 to 78, median 50.5 years) receiving regular treatment with a combination of a CDK4/6 inhibitor (PAL, RIB or ABE) and endocrine therapy (ANA, LET, FUL or exemestane, EXE) were obtained and analyzed using this LC-MS method. The samples were mostly taken in the elimination phase, during the patients’ regular visit to the hospital before the next dose administration, except in the case of patient 4 (sampling 1 h after dose administration). The aromatase inhibitors and ABE are continuously administered as single daily doses, FUL is a once-monthly intramuscular injection, and the dosing regimen of PAL and RIB involves a week off treatment every 21 days to minimize treatment-induced neutropenia.
The samples were analyzed against freshly prepared calibration curves. The results are listed in Table 7, while the accompanying chromatograms and mass spectra are included in the Supplementary Materials, Section 1, Figures S1–S29.
Healthy and patient blood samples were collected and pre-treated at the University Hospital Centre Zagreb, with signed informed consent. Patients receiving a combination of a CDK4/6 inhibitor and endocrine therapy as regular treatment for at least 4 months were enrolled.
Whole blood was collected in containers with K2-EDTA anticoagulant and centrifuged for 10 min at 1500 g; the supernatant was then withdrawn and stored at −18 °C (blank plasma) or −80 °C (patients’ plasma). Hemolyzed plasma was obtained by briefly freezing a whole blood sample at −18 °C before continuing with the procedure.
Calibration and QC samples were prepared by diluting 5 µL of the appropriate working solutions of the analytes with 45 µL of blank plasma in 1.5 mL polypropylene centrifuge tubes. In case of patient sample analysis, an aliquot of 50 µL of patient plasma was used. Proteins were precipitated by adding 200 µL of ACN, after which the samples were vortex-mixed for 10 s and centrifuged at 2000 g for 5 min. The resulting supernatant was collected and 200 µL was evaporated to dryness in a vacuum evaporator at room temperature. The dry residue was dissolved in 40 µL of 65% methanol, while 5 µL was injected into the chromatographic system.

[4] = higher QC level (RIB 2500, ABE 1500, PAL 250, ANA 100, LET 250, FUL 500 ng/mL)
[5] = lower QC level (RIB 62.5, ABE 37.5, PAL 6.2, ANA 2.5, LET 6.25, FUL 12.5 ng/mL)

SMILES	Stability Bias (%) 1 FT Cycle (30 min, −18–25 °C) [1, 4] [%]	Stability Bias (%) 2 FT Cycles (30 min, −18–25 °C) [1, 4] [%]	Stability Bias (%) 3 FT Cycles (30 min, −18–25 °C) [1, 4] [%]	Stability Bias (%) Long-Term (2 Weeks, −18 °C) [1, 4] [%]	Stability Bias (%) 1 FT Cycle (30 min, −18–25 °C) [1, 5] [%]	Stability Bias (%) 2 FT Cycles (30 min, −18–25 °C) [1, 5] [%]	Stability Bias (%) 3 FT Cycles (30 min, −18–25 °C) [1, 5] [%]	Stability Bias (%) Long-Term (2 Weeks, −18 °C) [1, 5] [%]	Stability Bias (%) Autosampler (10 h, 10 °C) [1, 4] [%]	Stability Bias (%) Autosampler (10 h, 10 °C) [1, 5] [%]	Stability Bias (%) Bench Top (2 h, 25 °C) [1, 4] [%]	Stability Bias (%) Bench Top (2 h, 25 °C) [1, 5] [%]	Expected literature range Cmin–Cmax [2]	also measured
N#Cc1ccc(C(c2ccc(C#N)cc2)n2cncn2)cc1 [LET, letrozole]	2.07	−0.26	−7.61	−7.75	−0.06	−6.52	−3.50	−10.44	−0.29	6.11	6.16	−6.81	28.4–349.2 [28] ng/mL	concentration at 1 h ([3]; human, plasma, patient 4, LET 2.5 mg daily, 1 h after dose administration): 139 ng/mL; Plasma Concentration ([3]; patient 1, LET 2.5 mg daily): 109.99 ng/mL; Plasma Concentration ([3]; patient 2, LET 2.5 mg daily): 141.11 ng/mL; Plasma Concentration ([3]; patient 3, LET 2.5 mg daily): 146.21 ng/mL
CC(=O)c1c(C)c2cnc(Nc3ccc(N4CCNCC4)cn3)nc2n(C2CCCC2)c1=O [PAL, palbociclib]	6.35	−1.65	−7.90	−3.08	14.97	1.86	2.81	12.29	14.95	13.69	−4.37	3.08	72.8–185.5 [26] ng/mL	concentration at 27 day ([3]; human, plasma, patient 8, PAL 125 mg daily, sampling day 27 (off-treatment week)): 7.55 ng/mL; Plasma Concentration (ng/mL) ([3]; patient 9, PAL 125 mg daily, sampling day 28 (off-treatment week)): <LOQ; Plasma Concentration (ng/mL) ([3]; patient 10, PAL 125 mg daily, sampling day 23 (off-treatment week)): <LOD
C[C@]12CC[C@@H]3c4ccc(O)cc4C[C@@H](CCCCCCCCC[S+]([O-])CCCC(F)(F)C(F)(F)F)[C@H]3[C@@H]1CC[C@@H]2O (some centres unmarked) [FUL, fulvestrant]	2.23	4.49	−7.51	−1.62	−14.59	−13.24	−8.90	−5.01	−8.06	7.38	2.32	−9.36	16–25 [29] ng/mL	Plasma Concentration ([3]; patient 7, FUL 500 mg monthly, intramuscular): 20.73 ng/mL; Plasma Concentration ([3]; patient 8, FUL 500 mg monthly, intramuscular): 22.69 ng/mL; Plasma Concentration ([3]; patient 9, FUL 500 mg monthly, intramuscular): 22.13 ng/mL; Plasma Concentration ([3]; patient 10, FUL 500 mg monthly, intramuscular): 24.56 ng/mL
